Like-named read-outs stand apart in the source and are kept apart here.
Key:
NANOLUC® luciferase [1] = target: T1, NANOLUC® luciferase (Oplophorus gracilirostris, UniProt Q9GV45, A31E/A60N/A81I/F95D/I117V/K70R/L54V/L99Q/M102K/N193R/P142E/Q151K/Q38R/Q45L/V71I/Y165I); experiment: Luminescent spectra of NANOLUC luciferase in the presence of coelenterazine analogue (peak emission); format: biochemical; conditions: for λ max (nm): peak luminescence emission with NANOLUC luciferase
Experimental: FIGS. 1A-1B show kinetic and spectral properties of coelenterazine analogues. (FIG. 1A) Michaelis-Menten analysis determining the relative luminescence produced by 0.01 nM NANOLUC® luciferase at various concentrations of coelenterazine analogues. […] (FIG. 1B) Luminescent spectra of 0.5 nM NANOLUC® luciferase in the presence of 20 μM coelenterazine analogue.
Experiments were conducted during the development of embodiments herein to test the effect of derivatization on the biochemical properties of novel coelenterazine analogues. Properties tested include the analogues' ability to be utilized by NANOLUC® luciferase, as assessed through the determination of Vmax and KM, as well as the peak wavelength of luminescence emission.

NANOLUC® luciferase [2] = target: T1, NANOLUC® luciferase; experiment: Michaelis-Menten analysis of relative luminescence produced by NANOLUC luciferase at various concentrations of coelenterazine analogues; format: biochemical; conditions: 0.01 nM NANOLUC luciferase; for Vmax (norm): normalised to furimazine = 1; for Km: read-out: Km

T1 sequence (Q9GV45 other isoform, or with tags, fused parts or gaps with the stated changes): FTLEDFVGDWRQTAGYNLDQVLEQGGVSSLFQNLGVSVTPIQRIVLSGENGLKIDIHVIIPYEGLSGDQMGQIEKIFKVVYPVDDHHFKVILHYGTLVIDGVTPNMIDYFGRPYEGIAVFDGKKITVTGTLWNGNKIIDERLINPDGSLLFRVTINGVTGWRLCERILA

SMILES: O=C1C(Cc2ccco2)N=C2C(c3cncc(Cl)c3)=NC(c3ccccc3)=CN12 (stereo not shown) [Compound 9812, 8-(5-chloropyridin-3-yl)-2-(furan-2-ylmethyl)-6-phenylimidazo[1,2-a]pyrazin-3(7H)-one]
- shift of peak emission relative to compound 7314 (NANOLUC® luciferase [1]; reacted with NANOLUC luciferase, chloropyridin group in place of phenyl ring of 7314): red-shift the peak emission

SMILES: O=c1c(Cc2ccco2)nc2c(-c3cnnc(Cl)c3)[nH]c(-c3ccccc3)cn1-2 [Compound 9894, 8-(6-Chloropyridazin-4-yl)-2-(furan-2-ylmethyl)-6-phenylimidazo[1,2-a]pyrazin-3(7H)-one]
- peak emission (λem) (NANOLUC® luciferase [1]; Scheme 1, 0.5 nM NANOLUC luciferase, 20 μM coelenterazine analogue): 622 nm

SMILES: O=c1c(Cc2ccco2)nc2c(-c3cnnc(Cl)c3)[nH]c(-c3cccc(F)c3)cn1-2 [Compound 10299]
- Vmax (norm) (NANOLUC® luciferase [2]; Table 1): 0.000505
- λ max (nm) (NANOLUC® luciferase [1]; Table 1): 622 nm

SMILES: COc1cccc(-c2cn3c(=O)c(Cc4ccco4)nc-3c(-c3cnnc(Cl)c3)[nH]2)c1 [Compound 10300]
- Vmax (norm) (NANOLUC® luciferase [2]; Table 1): 0.000505

SMILES: O=c1c(Cc2ccco2)nc2c(-c3cnnc(Cl)c3)[nH]c(-c3cccc(F)c3F)cn1-2 [Compound 10427, 8-(6-chloropyridazin-4-yl)-6-(2,3-difluorophenyl)-2-(furan-2-ylmethyl)imidazo[1,2-a]pyrazin-3(7H)-one]
- Vmax (norm) (NANOLUC® luciferase [2]; Table 2): 0.0015
- λ max (nm) (NANOLUC® luciferase [1]; Table 2): 600 nm

SMILES: O=c1c(Cc2ccco2)nc2c(Cc3ccccc3)[nH]c(-c3ccccc3)cn1-2 [Furimazine, reference compound]
- Vmax (norm) (NANOLUC® luciferase [2]; Table 1): 1
- Km (NANOLUC® luciferase [2]; Table 1): 0.23 µM
- Vmax (norm) (NANOLUC® luciferase [2]; Table 2): 1
- Km (NANOLUC® luciferase [2]; Table 2): 0.56 µM
- λ max (nm) (NANOLUC® luciferase [1]; Table 1): 466 nm
- λ max (nm) (NANOLUC® luciferase [1]; Table 2): 462 nm

From US20250206747A1, “COELENTERAZINE ANALOGUES” (priority 2023, published 2025)
